{"source": "patent US10383837B2", "about": "“Compositions and methods for modulating metabolic pathways” (NuSirt Sciences, Inc., priority 2011, dated 2019)", "key": {"Adipocytes (3T3-L1)": {"system": "Adipocytes (3T3-L1)", "assay": "Fatty acid oxidation by 3H-palmitate in 3T3-L1 adipocytes", "type": "cell-based", "settings": "4 hours, low (5 mM) glucose, resveratrol 200 nM, HMB 5 uM, leucine 0.5 mM", "protocol": "High glucose medium reduced fatty acid oxidation by 46% (p<0.05).\nFatty acid oxidation was measured using ^3H-labeled palmitate oxidation, with the ^3H label trapped as water as a result of the fat oxidation. The ^3H was then measured via scintillation counter."}, "myotubes (C2C12)": {"system": "myotubes (C2C12)", "assay": "Fatty acid oxidation, palmitate-induced O2 consumption (Seahorse XF24), myotubes", "type": "cell-based", "settings": "24 hours treatment, leucine 0.5 mM, HMB 5 μM, resveratrol 200 nM, partner at its no-effect concentration, % change from control"}, "UCP1": {"system": "UCP1", "assay": "UCP1 mRNA expression in subcutaneous adipose tissue of diet-induced obese mice", "type": "in vivo, c57/BL6 mice", "settings": "six weeks, resveratrol 12.5 mg/kg diet, leucine 2.42%", "protocol": "Expression of 18S, Sirt1, Sirt3, PGC1-α, cytochrome c oxidase subunit VIIc1 (COX 7), mitochondrial NADH dehydrogenase, nuclear respiratory factor 1 (NRF1), uncoupling protein (UCP2 (adipocyte)/UCP3 (myocyte), p53, AMPK, Akt/PKB, and GLUT4 is measured via quantitative real-time PCR using an ABI 7300 Real-Time PCR system (Applied Biosystems, Branchburg, N.J.) with a TaqMan® core reagent kit. All primers and probe sets can be obtained from Applied Biosystems TaqMan® Assays-on-Demand and utilized accordingly to manufacturer's instructions. Pooled RNA from each cell type are serial-diluted in the range of 0.0156-50 ng and were used to establish a standard curve; total RNA for each unknown sample is also diluted in this range. […] Expression of each gene of interest is then normalized using the corresponding 18S quantitation.\nSix week old male c57/BL6 mice were fed a high-fat diet with fat increased to 45% of energy (Research Diets D12451) for 6 weeks to induce obesity. […] RNA was extracted from the subcutaneous adipose tissue, and gene expression was evaluated according to methods described in Example 4. […] Plasma levels of irisin were also evaluated, the results of which are described in Example 8 and illustrated in FIG. 70. […] Protein expression may also be determined by Western blot or ELISA, as in Example 8. […]"}, "SIRT1 [1]": {"target": "T1, SIRT1 (Mus musculus, UniProt Q923E4)", "T1 sequence (Q923E4 1-737)": "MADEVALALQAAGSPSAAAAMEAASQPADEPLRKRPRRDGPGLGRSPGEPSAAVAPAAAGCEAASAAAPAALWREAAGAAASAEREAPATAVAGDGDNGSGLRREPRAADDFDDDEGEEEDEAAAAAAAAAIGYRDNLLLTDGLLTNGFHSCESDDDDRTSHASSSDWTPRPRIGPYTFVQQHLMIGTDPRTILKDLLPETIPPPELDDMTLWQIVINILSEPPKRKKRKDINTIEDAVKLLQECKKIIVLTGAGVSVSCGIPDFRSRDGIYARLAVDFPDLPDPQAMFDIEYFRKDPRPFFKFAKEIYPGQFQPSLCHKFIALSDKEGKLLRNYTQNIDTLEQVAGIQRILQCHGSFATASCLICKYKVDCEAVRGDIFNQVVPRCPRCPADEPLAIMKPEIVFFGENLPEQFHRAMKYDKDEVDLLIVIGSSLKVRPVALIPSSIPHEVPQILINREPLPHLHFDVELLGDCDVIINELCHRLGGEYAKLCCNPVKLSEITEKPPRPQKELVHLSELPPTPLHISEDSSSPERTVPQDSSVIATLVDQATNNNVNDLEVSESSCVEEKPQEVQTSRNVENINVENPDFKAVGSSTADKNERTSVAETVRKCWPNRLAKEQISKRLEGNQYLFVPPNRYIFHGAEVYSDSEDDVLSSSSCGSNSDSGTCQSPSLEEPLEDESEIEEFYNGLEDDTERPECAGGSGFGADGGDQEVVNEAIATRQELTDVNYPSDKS", "assay": "Sirt1 activity of treated cells (SIRT1 Fluorimetric Drug Discovery Kit), Example 5", "type": "cell-based", "parameters": "endogenous in cells; host or cells: 3T3-L1 adipocytes and C2C12 myotubes", "settings": "leucine 0.5 mM, HMB 5 μM, resveratrol 200 nM; summary in Example 5, system not stated", "protocol": "All compounds were tested for potential to independently or synergistically modulate sirtuin signaling either by direct stimulation or indirect via upstream signaling via AMPK. A key outcome of Sirt1 signaling is stimulation of PGC1-α and subsequent stimulation of mitochondrial biogenesis and fatty acid oxidation. Accordingly, fatty acid oxidation, measured as palmitate-induced oxygen consumption as described below, was utilized as a sensitive first level of screening for aerobic mitochondrial metabolism. A dose-response curve for fatty acid oxidation was established for each compound studied, and a “sub-therapeutic dose” was defined as the highest dose that exerted no effect in this system. […] Following assessment of fatty acid oxidation, Sirt1 activity, AMPK activity, mitochondrial biogenesis and glucose utilization (measured as glucose-induced extracellular acidification in the absence of fatty acids in the media) were assessed for lead combinations and appropriate controls. SIRT1 activity was measured by using the SIRT1 Fluorimetric Drug Discovery Kit (BML-AK555, ENZO Life Sciences International, Inc. PA, USA). […]"}, "SIRT1 [2]": {"target": "T1, SIRT1", "assay": "Adipose tissue Sirt1 activity in diet-induced obese mice", "type": "in vivo, c57/BL6 mice", "parameters": "from tissue; host or cells: adipose tissue of diet-induced obese c57/BL6 mice", "settings": "6 weeks"}}, "data": [{"smiles": "Oc1ccc(/C=C/c2cc(O)cc(O)c2)cc1", "note": "[resveratrol, 3,5,4′-Trihydroxy-trans-stilbene]", "values": [{"measurement": "increase in fatty acid oxidation, low glucose", "setting": "Adipocytes (3T3-L1)", "result": "no independent effect"}, {"measurement": "increase in myotube fatty acid oxidation", "setting": "myotubes (C2C12)", "result": "neither component exerted an independent effect"}, {"measurement": "increase in UCP1 expression in white subcutaneous adipose tissue", "setting": "UCP1", "result": "no independent effect"}, {"measurement": "stimulation of Sirt1 activity", "setting": "SIRT1 [1]", "result": "no effect"}, {"measurement": "adipose tissue Sirt1 activity", "setting": "SIRT1 [2]; high dose resveratrol", "result": "non-significant trend towards an increase"}, {"measurement": "adipose tissue Sirt1 activity", "setting": "SIRT1 [2]; low dose of resveratrol, HMB, leucine diets", "result": "Neither resveratrol nor HMB exerted significant independent effects"}]}]}
